Values quoted from earlier work, collected in patent publication US20090317487A1, “KITS FOR PREVENTION AND TREATMENT OF RHINITIS” (priority 2006, published 2009).

Tested on: infectious rhinitis (common cold)
Details: patients; literature studies (Mossad 1996, Prasad 2000, Farr 1987)

CC(=O)[O-].CC(=O)[O-].[Zn+2] [zinc acetate]
effect on severity and/or duration of infectious rhinitis (common cold): reduced duration of infection

[Zn] [zinc]
effect on severity and/or duration of infectious rhinitis (common cold): significant effect on the severity and duration of infectious rhinitis
